Assay results published in ChEMBL document CHEMBL1201862, “PubChem BioAssay data set” (2004).
Calls of active or inactive are those of the source.

Assays:
cells [1] = type: functional, cell-based
cells [2] = type: functional, cell-based; remark: listed apart in the source
Nonstructural protein 1 = Nonstructural protein 1 (Influenza A virus, UniProt Q194T2); type: functional, Influenza A virus (A/California/07/2009(H1N1))
[3] = target: T1, Replicative DNA helicase DnaB (Mycobacterium tuberculosis, UniProt P9WMR3); assay: DnaB intein splicing inhibitors, dose response, biochemical, cell-free fluorescence (AID 449749); type: functional
T1 sequence (P9WMR3 whole entry): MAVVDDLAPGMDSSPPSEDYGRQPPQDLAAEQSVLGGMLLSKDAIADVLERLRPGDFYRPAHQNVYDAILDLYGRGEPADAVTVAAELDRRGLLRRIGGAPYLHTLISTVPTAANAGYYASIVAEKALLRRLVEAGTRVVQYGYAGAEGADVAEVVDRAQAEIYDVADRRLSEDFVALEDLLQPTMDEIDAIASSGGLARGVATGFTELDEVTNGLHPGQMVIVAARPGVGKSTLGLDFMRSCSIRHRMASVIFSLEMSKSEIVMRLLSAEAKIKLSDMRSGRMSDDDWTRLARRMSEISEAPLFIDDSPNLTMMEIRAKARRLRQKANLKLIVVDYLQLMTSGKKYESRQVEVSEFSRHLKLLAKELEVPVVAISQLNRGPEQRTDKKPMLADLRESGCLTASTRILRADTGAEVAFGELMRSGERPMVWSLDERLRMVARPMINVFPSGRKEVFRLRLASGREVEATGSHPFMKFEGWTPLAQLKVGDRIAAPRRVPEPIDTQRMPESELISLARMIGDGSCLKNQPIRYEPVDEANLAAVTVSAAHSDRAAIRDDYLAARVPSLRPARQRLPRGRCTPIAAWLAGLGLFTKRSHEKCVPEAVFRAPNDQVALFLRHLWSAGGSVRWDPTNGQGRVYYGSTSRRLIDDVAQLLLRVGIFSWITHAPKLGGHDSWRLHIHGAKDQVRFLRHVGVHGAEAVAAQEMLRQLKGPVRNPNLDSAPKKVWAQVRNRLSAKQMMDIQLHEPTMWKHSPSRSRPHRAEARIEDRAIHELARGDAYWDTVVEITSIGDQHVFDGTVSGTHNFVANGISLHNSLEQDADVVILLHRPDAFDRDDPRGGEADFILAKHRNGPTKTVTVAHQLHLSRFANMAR

Protein RecA = target: T2, Protein RecA (Mycobacterium tuberculosis, UniProt P9WHJ3); assay: Fluorescence Cell-Free Homogeneous Dose Retest to Identify Inhibitors of RecA-Intein Splicing Activity. [Related pubchem assays (depositor defined):AID2097, AID2223, AID489010, AID492950]; type: functional
T2 sequence (P9WHJ3 whole entry): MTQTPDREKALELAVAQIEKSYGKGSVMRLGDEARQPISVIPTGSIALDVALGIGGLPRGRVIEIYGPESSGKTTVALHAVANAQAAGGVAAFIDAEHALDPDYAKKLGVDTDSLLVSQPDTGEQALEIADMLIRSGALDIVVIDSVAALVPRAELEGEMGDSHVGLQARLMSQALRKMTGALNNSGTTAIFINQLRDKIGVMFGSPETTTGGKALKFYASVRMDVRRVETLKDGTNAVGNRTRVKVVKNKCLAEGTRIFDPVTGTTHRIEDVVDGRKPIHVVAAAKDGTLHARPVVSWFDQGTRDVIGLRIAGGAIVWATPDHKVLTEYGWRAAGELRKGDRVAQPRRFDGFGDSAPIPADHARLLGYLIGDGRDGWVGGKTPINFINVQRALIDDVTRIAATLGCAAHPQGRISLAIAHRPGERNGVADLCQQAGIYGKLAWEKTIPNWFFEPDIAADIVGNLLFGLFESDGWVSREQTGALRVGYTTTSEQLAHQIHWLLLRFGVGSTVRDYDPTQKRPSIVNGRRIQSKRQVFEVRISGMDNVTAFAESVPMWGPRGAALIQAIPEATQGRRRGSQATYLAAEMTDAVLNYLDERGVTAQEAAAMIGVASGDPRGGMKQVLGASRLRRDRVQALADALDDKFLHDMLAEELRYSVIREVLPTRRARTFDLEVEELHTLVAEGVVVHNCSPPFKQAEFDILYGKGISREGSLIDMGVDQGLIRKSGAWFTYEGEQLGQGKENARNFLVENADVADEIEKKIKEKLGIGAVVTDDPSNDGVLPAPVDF

[4] = Luminescence Cell-Based Dose Confirmation HTS to Identify Activators of 5'UTR Stem-Loop Driven Alpha-Synuclein mRNA Translation in H4 Neuroglioblastoma Cells. [Related pubchem assays: 1829 (Project Summary), 1814 (Primary HTS)]; type: functional
H4 = assay: Luminescence Cell-Based Dose Response HTS to Identify Activators of 5'UTR Stem-Loop Driven Prion Protein mRNA Translation in H4 Neuroglioblastoma Cells. [Related pubchem assays: 1829 (Project Summary), 1814 (Primary HTS)]; type: functional; conditions: Homo sapiens
[5] = Luminescence Cell-Based Dose Response HTS to Identify Activators of Luciferase Translation or Activity in H4 […] Cells. [Related pubchem assays: 1829 (Project Summary), 1814 (Primary HTS)]; type: functional
Genome polyprotein = Genome polyprotein (dengue virus type 2, UniProt P29990); assay: Dengue-2 NS5 methyltransferase inhibitors, primary screen, biochemical, confirmation dose response (AID 588689); type: functional
Sequence of Genome polyprotein (P29990 2492-3391 limits assumed): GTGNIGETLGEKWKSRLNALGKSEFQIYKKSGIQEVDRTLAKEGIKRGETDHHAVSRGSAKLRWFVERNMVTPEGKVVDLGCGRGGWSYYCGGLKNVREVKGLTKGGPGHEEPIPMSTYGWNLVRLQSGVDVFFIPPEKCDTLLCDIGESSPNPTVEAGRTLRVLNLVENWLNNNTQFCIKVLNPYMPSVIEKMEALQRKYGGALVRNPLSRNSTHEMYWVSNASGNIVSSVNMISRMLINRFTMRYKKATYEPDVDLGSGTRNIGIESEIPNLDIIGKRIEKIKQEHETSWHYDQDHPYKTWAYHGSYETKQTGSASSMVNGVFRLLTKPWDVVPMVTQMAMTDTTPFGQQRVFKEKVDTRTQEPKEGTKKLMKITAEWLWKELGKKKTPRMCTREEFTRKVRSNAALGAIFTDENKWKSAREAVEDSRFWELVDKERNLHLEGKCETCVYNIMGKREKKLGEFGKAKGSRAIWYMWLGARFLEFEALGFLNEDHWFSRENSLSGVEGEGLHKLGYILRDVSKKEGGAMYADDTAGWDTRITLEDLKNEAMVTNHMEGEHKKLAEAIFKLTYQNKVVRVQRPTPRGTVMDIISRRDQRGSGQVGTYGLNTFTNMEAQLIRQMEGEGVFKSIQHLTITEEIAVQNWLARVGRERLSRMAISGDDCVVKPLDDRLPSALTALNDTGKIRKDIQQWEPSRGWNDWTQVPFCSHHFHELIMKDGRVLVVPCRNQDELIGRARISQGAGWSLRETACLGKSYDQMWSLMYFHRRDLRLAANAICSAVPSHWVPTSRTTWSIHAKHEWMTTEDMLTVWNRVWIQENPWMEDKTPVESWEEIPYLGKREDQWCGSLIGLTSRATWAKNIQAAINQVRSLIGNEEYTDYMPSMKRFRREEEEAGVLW

[6] = control 3'UTR Renilla luciferase suppression, dose response, counter-screen for Shn3 inhibitor project, cell-based, Clone20-Shn3RL, cherry-picked (AID 624133); type: functional
[7] = HepG2 cell cytotoxicity, dose response, cytotoxicity control for Shn3 inhibitor project, CellTiter-Glo, cherry-picked (AID 624134); type: functional, cell-based
[8] = Shn3 3'UTR reporter inhibitors, dose response, cell-based, Clone20 osteoblasts, firefly luciferase, cherry-picked (AID 624132); type: functional;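 also: firefly luciferase luminescence from reporter carrying the Shn3 3'UTR in osteoblasts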
Large T antigen = Large T antigen (Simian virus 40, UniProt P03070); type: functional, Betapolyomavirus macacae;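 also: Confirmatory-stage PubChem screen for compounds that inhibit SV40 T antigen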
Sequence of Large T antigen (P03070 whole entry): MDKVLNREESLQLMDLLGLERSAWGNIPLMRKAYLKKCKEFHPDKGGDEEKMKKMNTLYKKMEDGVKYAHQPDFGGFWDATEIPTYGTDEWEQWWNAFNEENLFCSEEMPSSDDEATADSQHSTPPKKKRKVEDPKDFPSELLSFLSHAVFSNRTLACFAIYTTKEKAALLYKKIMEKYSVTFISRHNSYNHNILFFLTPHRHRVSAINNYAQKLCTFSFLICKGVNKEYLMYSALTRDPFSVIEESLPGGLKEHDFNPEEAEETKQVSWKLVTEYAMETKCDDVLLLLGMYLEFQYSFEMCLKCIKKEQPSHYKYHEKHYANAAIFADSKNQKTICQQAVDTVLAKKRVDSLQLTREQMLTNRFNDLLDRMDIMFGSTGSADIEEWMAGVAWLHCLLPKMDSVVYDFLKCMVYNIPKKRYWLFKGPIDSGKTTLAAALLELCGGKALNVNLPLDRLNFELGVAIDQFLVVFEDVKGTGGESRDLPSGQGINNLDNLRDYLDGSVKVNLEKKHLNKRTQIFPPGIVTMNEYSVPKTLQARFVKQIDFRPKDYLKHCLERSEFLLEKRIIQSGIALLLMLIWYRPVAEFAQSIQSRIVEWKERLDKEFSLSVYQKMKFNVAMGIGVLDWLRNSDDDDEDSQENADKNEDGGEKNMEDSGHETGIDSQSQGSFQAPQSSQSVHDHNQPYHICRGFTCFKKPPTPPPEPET

[9] = microbe, parasite or virus in culture; type: functional; conditions: Mycobacterium tuberculosis
[10] = Luminescence Cell-Based Dose Retest to Confirm Inhibitors of Cancer Stem Cells. [Related pubchem assays (depositor defined):AID2717, AID2721]; type: functional; conditions: Homo sapiens
[11] = target: T3, DNA repair protein RAD52 homolog (Homo sapiens, UniProt P43351); type: functional, biochemical
T3 sequence (P43351 whole entry): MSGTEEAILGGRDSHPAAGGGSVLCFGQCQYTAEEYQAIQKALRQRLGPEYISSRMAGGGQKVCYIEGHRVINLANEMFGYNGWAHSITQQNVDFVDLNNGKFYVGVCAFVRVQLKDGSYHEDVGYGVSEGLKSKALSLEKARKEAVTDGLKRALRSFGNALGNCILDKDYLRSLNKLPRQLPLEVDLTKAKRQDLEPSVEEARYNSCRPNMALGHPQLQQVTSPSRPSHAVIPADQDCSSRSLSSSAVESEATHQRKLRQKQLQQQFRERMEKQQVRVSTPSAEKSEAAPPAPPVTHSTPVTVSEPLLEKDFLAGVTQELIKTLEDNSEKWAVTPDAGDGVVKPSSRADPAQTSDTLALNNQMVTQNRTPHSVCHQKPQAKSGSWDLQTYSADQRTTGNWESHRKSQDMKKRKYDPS

[12] = target: Heat shock protein HSP 90-alpha (Homo sapiens, UniProt P07900); type: functional, organism-based
Streptococcus = assay: Group A Streptococcus viability loss, dose response, counter-screen for streptokinase expression inhibitor project, luminescence, BacTiterGlo (AID 1915); type: functional, organism-based;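 also: potency for reduction of bacterial viability or growth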
[13] = system: Streptococcus sp. 'group A'; assay: growth inhibition of control SK(-) GAS strain, dose response, counter-screen for streptokinase expression inhibitor project, luminescence, kanamycin, BacTiterGlo, confirmation (AID 1900); type: functional, organism-based
Streptokinase A = target: T4, Streptokinase A (Streptococcus pyogenes serotype M1, UniProt P10520); assay: S. pyogenes streptokinase expression inhibitors, potency, dose response, plasminogen activation absorbance, OD405 (AID 1914); type: functional, Streptococcus pyogenes M1 GAS;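 also: secreted streptokinase activity via plasminogen activation per viability signal from cell pellet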
T4 sequence (P10520 whole entry): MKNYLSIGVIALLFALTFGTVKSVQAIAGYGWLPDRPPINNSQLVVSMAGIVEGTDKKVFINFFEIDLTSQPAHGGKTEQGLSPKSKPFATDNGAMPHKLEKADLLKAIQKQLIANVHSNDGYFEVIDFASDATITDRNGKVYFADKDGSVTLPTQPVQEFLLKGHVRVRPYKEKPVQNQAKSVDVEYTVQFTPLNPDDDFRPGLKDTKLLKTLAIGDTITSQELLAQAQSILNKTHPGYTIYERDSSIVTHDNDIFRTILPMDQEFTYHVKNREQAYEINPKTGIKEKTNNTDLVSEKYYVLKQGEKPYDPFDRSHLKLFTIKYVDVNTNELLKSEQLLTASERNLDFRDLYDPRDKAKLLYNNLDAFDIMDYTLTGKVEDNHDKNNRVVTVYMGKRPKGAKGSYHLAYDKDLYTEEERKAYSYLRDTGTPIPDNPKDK

Sequence of Nonstructural protein 1 (Q194T2 whole entry): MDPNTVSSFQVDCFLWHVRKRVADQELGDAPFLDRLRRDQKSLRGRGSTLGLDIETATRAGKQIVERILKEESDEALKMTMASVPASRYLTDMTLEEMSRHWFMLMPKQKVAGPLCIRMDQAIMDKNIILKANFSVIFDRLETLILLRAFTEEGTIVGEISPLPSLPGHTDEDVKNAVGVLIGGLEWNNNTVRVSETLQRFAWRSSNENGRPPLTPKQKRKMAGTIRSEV

O=C1CCCC(=O)C1=CNc1cccc(C(F)(F)F)c1
EC50 (cells [1]): > 350 µM (not active)
EC50 (cells [2]): > 350 µM (not active)

COC(=O)c1ccc(CSc2nc3c(c(=O)n2-c2ccc(F)cc2)SCC3)o1
EC50 (cells [1]): > 350 µM (not active)
EC50 (cells [2]): > 350 µM (not active)

CCC1CCCCN1Cc1c(O)ccc2c(=O)c(-c3ccccc3OC)coc12 (configuration not stated)
EC50 (cells [1]): > 350 µM (not active)
EC50 (cells [2]): > 350 µM (not active)

O=C1NC(=S)N(C2CC2)C(=O)/C1=C/NNC(=O)c1ccccc1
IC50 (Nonstructural protein 1): 12.7 µM (active)

COc1cc(N=Nc2cccc(S(N)(=O)=O)c2)c2ccccc2c1N
AC50 [3]: 5.37 µM (active)
IC50 (Nonstructural protein 1): 14.2 µM (active)
EC50 (Protein RecA): 11.5 µM (active)

Cc1csc(NC(=O)CSc2ccc(-c3ccccn3)nn2)n1
IC50 (Nonstructural protein 1): 10.2 µM (active)

CCC1(c2ccc(Cl)cc2)N=C(S)N(c2ccc(C)cc2)N1 (configuration not stated)
EC50 [4]: 19.1 µM (active)
EC50 (H4): 14.7 µM (inconclusive)
EC50 [5]: 11.2 µM (active)

COc1ccc(C2CC(c3ccccc3)=NN2c2ccc(Cl)c(C(=O)O)c2)cc1 (configuration not stated)
IC50 (Genome polyprotein): 39.9 µM (active)

COc1ccc2occ(C(=O)c3cccs3)c2c1
EC50 [4]: 6.67 µM (active)
EC50 (H4): 32.6 µM (active)
EC50 [5]: 13.3 µM (active)

Cc1ccc(N2CC(=O)Nc3c(sc4nc(C)cc(C)c34)C2=O)cc1
EC50 (cells [1]): > 350 µM (not active)
EC50 (cells [2]): > 350 µM (not active)

COc1ccc(CC(NC(C)=O)C(=O)NC2CCN(C(=O)c3cccc(Cl)c3)CC2)cc1OC (configuration not stated)
EC50 (cells [1]): > 350 µM (not active)
EC50 (cells [2]): > 350 µM (not active)

c1ccc2c(-c3n[nH]cc3CNCCCn3ncc4ccccc43)cccc2c1
AC50 [6]: 4.62 µM (active)
AC50 [7]: 56.7 µM (active)
AC50 [8]: 3.25 µM (active)

Nc1ncc(N=Nc2cc(C(=O)O)ccc2Cl)s1
IC50 (Genome polyprotein): 73.6 µM (active)
IC50 (Large T antigen): 67.1 µM (active)

CCc1nc(C)c(C(=O)N2CCCC(C(=O)Nc3cccc(-c4cccc(C)c4)c3)C2)o1 (configuration not stated)
EC50 [4]: 8.19 µM (active)
EC50 (H4): 16.3 µM (active)
EC50 [5]: 7.7 µM (active)

COc1cc(CC(=O)Nc2ccc(Cl)c(C(F)(F)F)c2)cc(OC)c1OC
EC50 (cells [1]): > 350 µM (not active)
EC50 (cells [2]): > 350 µM (not active)

O=C(CSC1=NCCS1)N1CCc2ccccc21
EC50 [4]: 10.7 µM (active)
EC50 (H4): 15.4 µM (active)
EC50 [5]: 45.7 µM (active)

CSC1=NN=C(c2ccc(C(C)(C)C)cc2)NN1
EC50 [4]: 15.2 µM (active)
EC50 (H4): 16.9 µM (active)
EC50 [5]: 36.5 µM (active)

CCOc1ccc(NC(=O)CC(NCc2ccccn2)C(=O)O)cc1 (configuration not stated)
IC50 (Nonstructural protein 1): 1.28 µM (active)

Cc1ccc(Nc2cc(-n3cccn3)ncn2)c(C)c1
EC50 [4]: 0.12 µM (active)
EC50 (H4): < 0.1 µM (active)
EC50 [5]: 0.619 µM (active)

CCc1nnc(NC(=O)c2cc(Cl)ccn2)s1
IC50 (Nonstructural protein 1): 11.1 µM (active)

Cc1ccc(Cl)cc1N1CCN(CC(=O)NC2CCCc3ccccc32)CC1 (configuration not stated)
CC50 [9]: > 40 µM (active)
AC50 [10]: 5.48 µM (active)

Cn1nc(C(=O)NC2CCCCC2)c2c1-c1ccccc1SC2
EC50 [4]: 13.4 µM (active)
EC50 (H4): 12.2 µM (active)
EC50 [5]: 25.7 µM (active)

Cc1cccc(OCC(=O)Nc2ccc3c(c2)nc(CN2CCCCC2)n3C)c1
AC50 [11]: 20 µM (active)

O=C1OC(c2ccccc2)(c2cc(Br)c(O)c(Br)c2)c2ccccc21 (configuration not stated)
IC50 (Genome polyprotein): 35.2 µM (active)
AC50 [12]: 4.1 µM (active)

C/C(=N\NC(=S)NCC(C)(C)C)c1cc(F)cc(F)c1O
EC50 (Streptococcus): 2.68 µM (active)
EC50 [13]: 1.32 µM (active)
EC50 (Streptokinase A): 0.501 µM (active)
CC50 [9]: 22.9 µM (active)

N#CCC(=O)N/N=C/c1ccc(SCC(=O)Nc2ccccc2)o1
EC50 (cells [1]): > 350 µM (not active)
EC50 (cells [2]): > 350 µM (not active)
